Data on five molecules can be found in patent publication US20150366191A1, “ANTIMICROBIAL METHOD BY BLOCKING MANNITOL METABOLISM AND ANTIMICROBIAL COMPOSITION CONTAINING MANNITOL METABOLIC INHIBITOR” (Research & Business FOUNDATION SUNGKYUNKWAN UNIVERSITY, priority 2014, published 2015).

The subject of test [1] is bacteria infected into macrophages. In words: macrophage infection model, viability of bacteria in the presence of mannitol. The format is cell-based, Staphylococcus aureus. Conditions: compound and mannitol used together; after 18 hours of infection. From the text: In addition, to confirm an inhibitory effect in a host cell, a macrophage infection model was used.
Test [2] concerns bacteria. In words: viability of bacteria by optical density at 600 nm. The format is cell-based. Conditions: change in concentration of the compound; OD 600 nm.
Another test concerns the target M1PDH (Staphylococcus aureus, UniProt P99140). As to the kind of experiment: in vitro M1PDH enzymatic assay (NADH optical density at 340 nm). The format is biochemical. Conditions: fructose-6-phosphate and NADH, or Mtl-1-phosphate and NAD as substrates. From the text: To measure an in vitro M1PDH enzyme activity, a change in concentration of NADH according to an enzyme activity was observed through a change in optical density at 340 nm using fructose-6-phosphate and NADH, or Mtl-1-phosphate and NAD as substrates.

Another test has as its system mannitol metabolism. As to the kind of experiment: mannitol metabolism inhibition, phenol red colour change in mannitol medium. The format is cell-based. Conditions: medium containing 27 mM of mannitol and phenol red. The procedure:
When bacteria were cultured in a medium containing 27 mM of mannitol and phenol red, the mannitol was metabolized to produce fructose and reduce pH of the medium, thereby changing a color of the phenol red to yellow. However, since the phenol red was not changed in color to keep the medium red by inhibiting the mannitol metabolism, an inhibitor showing an mannitol metabolism inhibitory effect was found using such a principle (FIG. 11A).

Test [3] has as its system bacteria. In words: chemical toxicity assay (growth of bacteria). The format is cell-based.

Consider `Cc1c(O)c(O)cc2c1CC=C1[C@@]2(C)CC[C@@]2(C)C3C[C@](C)(C(=O)O)CC[C@]3(C)CC[C@]12C` (stereo partly drawn) [Compound 5, (2R,4aS,6aS,6aS,14aS,14bR)-10,11-dihydroxy-2,4a,6a,6a,9,14a-hexamethyl-3,4,5,6,8,13,14,14b-octahydro-1H-picene-2-carboxylic acid], for which the “SA viability in macrophages” value in test [1] is on record as “decrease in SA viability in a macrophage”. Also, in the test on bacteria [2], the viability of bacteria entry is reported as “decrease in viability”. Further, the “inhibition of M1PDH activity” value on M1PDH is given as “inhibiting an activity of M1PDH”.
As for `Nc1c(-c2ccc3ccccc3n2)c2ccc([N+](=O)[O-])cc2c(=O)n1Cc1ccccc1` [Compound 27, 3-amino-2-benzyl-7-nitro-4-(2-quinolyl)-1,2-dihydroisoquinolin-1-one], the “mannitol metabolism inhibitory effect” value in the test on mannitol metabolism was “inhibiting only the mannitol metabolism”. Further, the “inhibition of M1PDH activity” value on M1PDH is “inhibited M1PDH activity”. Also, in the test with bacteria [3], the “inhibition of growth of bacteria” value is recorded as “not inhibiting growth of bacteria”.
As to `Cc1nn(-c2ccccc2)c2c1C(c1ccc([N+](=O)[O-])cc1)C(C#N)=C(N)O2` (stereo not drawn) [Compound 10, 6-amino-3-methyl-4-(4-nitrophenyl)-1-phenyl-1,4-dihydropyrano[2,3-c]pyrazole-5-carbonitrile], in the test on mannitol metabolism, the “mannitol metabolism inhibitory effect” value is “inhibiting only the mannitol metabolism”. The “inhibition of M1PDH activity” value against M1PDH is reported as “inhibited M1PDH activity”. Also, in the test with bacteria [3], the “inhibition of growth of bacteria” value is listed as “not inhibiting growth of bacteria”.
On to `O=C(NC(=O)c1ccc(Oc2ccc(Cl)cc2)c([N+](=O)O)c1)Nc1ccccc1C(F)(F)F` [Compound 31, N-[4-(4-chlorophenoxy)-3-nitrobenzoyl]-N′-[2-(trifluoromethyl)phenyl]urea], for which, in the test on mannitol metabolism, the “mannitol metabolism inhibitory effect” value is given as “inhibiting only the mannitol metabolism”. For the same molecule, the “inhibition of M1PDH activity” value against M1PDH is “inhibited M1PDH activity”. For the same molecule, in the test with bacteria [3], the “inhibition of growth of bacteria” value is listed as “not inhibiting growth of bacteria”.
As to `COc1nc(NC(=O)NS(=O)(=O)c2ccccc2C(F)(F)F)nc(C23CC4CC(CC(C4)C2)C3)n1` [Compound 26, 2-(1-adamantyl)-4-methoxy-6-{[({[2-(trifluoromethyl)phenyl]sulfonyl}amino)carbonyl]amino}-1,3,5-triazine], the “mannitol metabolism inhibitory effect” value in the test on mannitol metabolism is “inhibiting only the mannitol metabolism”. Moreover, the “inhibition of M1PDH activity” value against M1PDH is recorded as “inhibited M1PDH activity”. In addition, the “inhibition of growth of bacteria” value in the test with bacteria [3] is listed as “not inhibiting growth of bacteria”.
